The values that follow come from US5171741A, “Bacteriochlorophyll-a derivatives useful in photodynamic therapy” (Health Research, Inc., priority 1989, dated 1992).

Where two headings read alike, the source gives them in different places. A value given as a limit tells only on which side of the number the result lay.

For data set [1] the following is noted: as compared to bacteriochlorophyll-a; Beems et al.; cited from earlier work.
A short description of data set [2]: Uptake, clearance and metabolism of bchla in tumor and liver (extraction, HPLC). As to conditions: for concentration at 2 h: 2 h after injection; for concentration at 24 h: 24 h after injection. Type of data set: in vivo, DBA/2 Ha mice. On the procedure: Uptake and clearance of bchla in tumor and liver were measured by extraction of the tumor or liver tissue with 1:1MeOH:CH2 Cl2, followed by HPLC analysis.
bchla Uptake in DBA/2 Ha Mice in SMT-F Tumor

Another data set concerns SMT-F tumors. The data set is described as follows: Photodynamic treatment of SMT-F tumors in mice with bchla, tumor response. Type of data set: in vivo, DBA2/HaD mice. As for the experimental part:
DBA2/HaD mice were transplanted with SMT-F tumors. When the subcutaneous tumors reached 4.5-5.5 mm in diameter, the mice, in groups of five, were injected intravenously with the bchla solution of Example 1 in doses of 5-30 mg/kg. At a time 1 hour-5 days later, the tumor, previously shaved and depiliated, plus a margin of 2-3 mm was exposed to radiation of a wavelength in the range 630-800 nm using a Spectraphysics argon dye laser with Exciton LDS751 dye, tunable over the 700-800 nm range or a diode laser--e. g., Spectra Diode emitting in the 750-850 nm range or a Xenon arc lamp filtered with an interference filter to pass 90% of the 700 nm light ±60 nm at dose rates of 75-150 mW/cm^2. When the Xenon system was used, mild hyperthermia resulted (42° C. at 160 mW/cm^2). It is not known whether this temperature rise acts synergistically with bchla as has been shown with HpD and its active fraction.
Tumor response is shown in the table of FIG. 1 for the seventh day after light treatment which indicates regression, and at a time point at least 30 days after light treatment, which would indicate cure, if there had been no regrowth.
As shown in FIG. 1 good response to bchla was obtained, for example, after 2 hours at 5 mg/kg in the 670-790 nm range and after 24 hours after injection with 10 mg/kg and irradiated at 680-780 nm. […]

Data set [3] is described as follows: Chemical and in vivo stability of bchla.
Another data set deals with skin of the foot. Description: Cutaneous photosensitivity of the foot of treated mice versus tumor response (therapeutic ratio). It is filed as in vivo. On the procedure:
One of the undesirable side effects of photodynamic therapy using certain compounds is cutaneous photosensitivity unrelated to the target biological substrate. Accordingly, the effect of the treatment on the photosensitivity of the foot of the treated mice was measured. The response of the foot was measured as erythema and/or edema (or loss of skin or further damage).

The conditions of data set [4]: cited from earlier work.

As to `CCC1c2cc3[nH]c(c(CC(=O)O)c4nc(cc5[nH]c(cc(n2)C1C)c(C(C)=O)c5C)C(C)C4CCC(=O)O)c(C(=O)O)c3C` (stereo not shown) [bacteriochlorin-a], the Water solubility result in data set [1] was “enhanced water solubility”.
Take `CCC1C2=NC(=Cc3c(C(C)=O)c(C)c4[n]3[Mg][n]3c(c(C)c(C(=O)O)c3=C(CC(=O)O)C3=NC(=C4)C(C)C3CCC(=O)O)=C2)C1C` (stereo not shown) [bacteriochloro-phyllin-a]: in data set [1], the Water solubility entry was “enhanced water solubility”.
Regarding `CCC1C2=NC(=Cc3c(C(C)=O)c(C)c4[n]3[Mg][n]3c(c(C)c5c3=C(C3=NC(=C4)C(C)C3CCC(=O)OCC=C(C)CCCC(C)CCCC(C)CCCC(C)C)C(C(=O)OC)C5=O)=C2)C1C` (stereo not shown) [bchla, Bacteriochlorophyll-a], the “Levels in tumor and liver maintained” value in data set [2] (24 or 48 hours) was “maintained for as long as 24 or 48 hours”. In addition, in data set [2] (after 2 hours), the “Levels in tumor and liver” value is “high levels”. Moreover, the “Composition of material in tumor” value was “demetallized but still contains phytyl” in data set [2] (at 24 hours); “mainly material without phytyl and without Mg” in data set [2] (at 48 hours); “essentially only bchla with a small amount of material wherein the phytyl group has hydrolyzed” in data set [2] (two hours after injection). The entries for the “Time of partial conversion to bacteriopheophytin” value in data set [2] (liver) and in data set [2] (tumor) were 2 h and at least 24 h, respectively. Also, the concentration at 2 h in data set [2] (mouse, liver, 10 mg/kg, read-out: Tissue Level, Liver) was 44000 ng/g; in data set [2] (mouse, tumor, 10 mg/kg, read-out: Tissue Level, Tumor) it was 6140 ng/g; in data set [2] (mouse, tumor, 20 mg/kg, read-out: Tissue Level, Tumor) it was 16000 ng/g. Moreover, the concentration at 24 h was 49400 ng/g in data set [2] (mouse, liver, 10 mg/kg, uncertain (*), conversion to other components, read-out: Tissue Level, Liver) and 10000 to 19700 ng/g in data set [2] (mouse, tumor, 20 mg/kg, uncertain (*), conversion to other components, read-out: Tissue Level, Tumor). Moreover, the concentration at 48 h in data set [2] (mouse, tumor, 10 mg/kg, 48 h after injection, uncertain (*), conversion to other components, read-out: Tissue Level, Tumor) is 10700 ng/g. The Tumor response entry in the data set with SMT-F tumors (5 mg/kg i.v., 2 hours after injection, 670-790 nm range) is given as “good response”; with SMT-F tumors (10 mg/kg i.v., 24 hours after injection, irradiated at 680-780 nm), “good response”. In addition, in data set [3], the Stability in vivo result was “sufficiently stable in vivo”. Further, the “Expected persistence of sensitivity to light” value with skin of the foot (expected from the mouse foot response) was “only a few days”. Besides, in the data set on skin of the foot (mice, FIG. 3), the “Sensitivity of the tumor and the skin of the foot as a function of time” value is given as “declined concomitantly”. For the same compound, the “Stability towards loss of magnesium ion” value in data set [4] (dilute acid) is “readily removed”. In addition, the Stability towards oxidation entry in data set [4] (especially in the presence of light) is given as “readily oxidized”.
